The values that follow come from patent US5385842A, “Anthraquinones as inhibitors of sulfide production from sulfate-reducing bacteria” (E. I. Du Pont de Nemours and Company, priority 1993, dated 1995).

Where a name gives a salt, the structure may show the parent alone.

This test concerns Desulfovibrio desulfuricans G100A. The test can be described thus: microbe, parasite or virus in culture. Format: cell-based.
The mark [1] stands for this setting: Desulfovibrio desulfuricans, G100A, read-out: % Inhib. (inhibition of sulfide production).

Usually inhibition stands for the percentage by which the read-out fell short of the control. For `CN(C)Cc1ccc(Nc2ccc(N)c3c2C(=O)c2ccccc2C3=O)cc1` [Basic Blue 47, 1-Amino-4-[4-[(dimethylamino)methyl]phenyl]amino-9,10-anthracenedione], the inhibition at 10 ppm under setting [1] is 37.2%.
For `O=C1c2ccccc2C(=O)c2c1ccc1ccccc21` [Benz[a]anthracene-7,12-dione], under setting [1], the inhibition at 30 ppm was determined as 52.9%.
For the molecule `Cc1c(C(=O)O)c(O)cc2c1C(=O)c1c(O)c([C@@H]3O[C@H](CO)[C@@H](O)[C@H](O)[C@H]3O)c(O)c(O)c1C2=O` [Carminic acid, 7-β-D-Glucopyranosyl-9,10-dihydro-3,5,6,8-tetra-hydroxy-1-methyl-9,10-dioxo-2-anthracene-carboxylic acid], the inhibition at 10 µg/mL under setting [1] stood at 0%.
As to `Cc1cc(O)c2c(c1O)C(=O)c1cc(O)cc(O)c1C2=O` [Catenarin, 1,4,5,7-Tetrahydroxy-2-methyl-9,10-anthracenedione], the inhibition at 10 ppm under setting [1] turned out to be 37.5%.
On to `Cc1cc(O)c2c(c1)C(=O)c1cccc(O)c1C2=O` [Chrysophanic acid, 1,8-Dihydroxy-3-methylanthraquinone], for which, under setting [1], the inhibition at 30 ppm amounted to 27.9%.
Turning to `Cc1cc(O)c2c(c1O)C(=O)c1c(O)ccc(O)c1C2=O` [Cynodontin, 1,4,5,8-Tetrahydroxy-2-methyl-9,10-anthracenedione], the inhibition at 10 ppm under setting [1] stood at 34.4%.
Turning to `COc1cccc2c1C(=O)c1c(O)c3c(c(O)c1C2=O)C[C@@](O)(C(C)=O)C[C@@H]3O[C@H]1C[C@H](N)[C@H](O)[C@H](C)O1` [Daunomycin hydrochloride, (8S-cis)-8-Acetyl-10[(3-amino-2,3,6-trideoxy-alpha-L-lyxo-hexopyranosyl)oxy]-7,8,9,10-tetrahydro-6,8,11-trihydroxy-1-methoxy-5,12-naphthacenedione hydrochloride, reference compound], under setting [1], the inhibition at 30 ppm is 62.9%.
As to `O=C1c2ccccc2C(=O)c2c(Nc3cccc4c3C(=O)c3ccccc3C4=O)cccc21` [Dianthrimide, 1,1'-Iminobis-9,10-anthracenedione], the inhibition at 30 ppm under setting [1] was 2.6%.
Same read-out and setting: the figure for `Nc1ccc(N)c2c1C(=O)c1c(N)ccc(N)c1C2=O` [Disperse blue 1, 1,4,5,8-Tetraaminoanthraquinone] is 3.9%.
The same measure, in the same setting: the figure for `CNc1ccc(NCCO)c2c1C(=O)c1ccccc1C2=O` [Disperse blue 3, 1-(2-Hydroxyethyl)amino-4-methylaminoanthraquinone] is 6.4%.
The same measure, in the same setting: the figure for `Cc1ccc2c(c1N)C(=O)c1ccccc1C2=O` [Disperse orange 11, 1-Amino-2-methylanthraquinone] is 5.2%; for `COc1cc(N)c2c(c1N)C(=O)c1ccccc1C2=O` [Disperse red 11, 1,4-Diamino-2-methoxyanthraquinone] it is 0%.
For the molecule `Cc1cc(O)c2c(c1)C(=O)c1cc(O)cc(O)c1C2=O` [Emodin, 6-Methyl-1,3,8-trihydroxyanthraquinone], the inhibition at 30 ppm under setting [1] is 2.6%.
On the same count and under the same terms, the figure for `Cc1cc(O)c2c(c1)C(=O)c1cc(O[C@@H]3OC[C@](O)(CO)[C@H]3O)cc(O)c1C2=O` [Frangulin B, 3-(D-apio-beta-D-Furanosyloxy)-1,8-dihydroxy-6-methyl-9,10-anthracenedione] is 57.1%.
As for `Cc1cc(O)c2c(c1)C(=O)c1c(O)ccc(O)c1C2=O` [Helminthosporin, 1,5,8-Trihydroxy-3-methyl-9,10-anthracenedione], the inhibition at 10 ppm under setting [1] is 31.3%.
As to `O=C1c2ccc3nc(-c4ccccc4)sc3c2C(=O)c2ccc3nc(-c4ccccc4)sc3c21` [Indanthrene yellow GCN, 2,8-Diphenyl-anthra[2,1-d:6,5-d']bisthiazole-6,12-dione], under setting [1], the inhibition at 10 ppm is 15.6%.
The same measure, in the same setting: the figure for `Cc1cc(O)c2c(c1O)C(=O)c1cccc(O)c1C2=O` [Islandicin, 1,4,5-Trihydroxy-2-methyl-9,10-anthracenedione] is 50%.
As for `COc1cc(NS(=O)(=O)c2ccc(C)cc2)c2c(c1N)C(=O)c1ccccc1C2=O` [N-(4-Amino-9,10-dihydro-3-methoxy-9,10-dioxo-1-anthracenyl)-4-methylbenzenesulfonamide], under setting [1], the inhibition at 30 ppm is 4.3%.
Turning to `O=C1c2ccccc2C(=O)c2cc(S(=O)(=O)NCc3ccccc3)ccc21` [N-Benzyl-9,10-dihydro-9,10-dioxo-2-anthracenesulfonamide], the inhibition at 30 ppm under setting [1] turned out to be 3.9%.
Take `CC(C)NC(=N)NC(=N)Nc1cccc2c1C(=O)c1ccccc1C2=O` [N-[1-(9,10-dihydro-9,10-dioxo)anthracenyl]-N'-(1-methylethyl)imidodicarbonimidic diamide hydrochloride]: the “inhibition of sulfide production (in words)” value is “inhibited sulfide formation”. The “% inhibition of sulfide formation” value (Table III, Example 3) is given as 83%.
As for `Nc1c(O)c(S(=O)(=O)O)c(O)c2c1C(=O)c1ccccc1C2=O` [Nuclear fast red, 4-Amino-9,10-dihydro-1,3-dihydroxy-9,10-dioxo-2-anthracenesulfonic acid, monosodium salt], the inhibition at 10 ppm under setting [1] is 20.4%.
Take `CCCCCNc1ccc(NCCCCC)c2c1C(=O)c1ccccc1C2=O` [Oil blue N, 1,4-Bis(pentylamino)-9,10-anthracenedione]: under setting [1], the inhibition at 30 ppm came to 3.6%.
As for `COc1cc(O)c2c(c1)C(=O)c1cc(C)cc(O)c1C2=O` [Physcion, 1,8-Dihydroxy-3-methoxy-6-methyl-9,10-anthracenedione], the inhibition at 10 ppm under setting [1] amounted to 34.4%.
Turning to `O=C1c2ccccc2C(=O)c2c(O)c(O)cc(O)c21` [Purpurin, 1,2,4-Trihydroxyanthraquinone], the inhibition at 30 ppm under setting [1] was 55.7%.
As for `O=C1c2ccc(O)c(O)c2C(=O)c2c(O)ccc(O)c21` [Quinalizarin, 1,2,5,8-Tetrahydroxyanthraquinone], the inhibition at 10 ppm under setting [1] amounted to 80%.
Regarding `Nc1c(S(=O)(=O)O)cc(Nc2ccc(S(=O)(=O)O)c(Nc3nc(Cl)nc(Nc4cccc(S(=O)(=O)O)c4)n3)c2)c2c1C(=O)c1ccccc1C2=O` [Reactive blue 5, 1-Amino-4[[3-[[4-chloro-6-[(3-sulfophenyl)amino]-1,3,5-triazin-2-yl]amino]-4-sulfophenyl]amino]-9,10-dihydro-9,10-dioxo-2-anthracenesulfonic acid], the inhibition at 10 ppm under setting [1] came out at 0%.
Same read-out and setting: the figure for `Nc1c(S(=O)(=O)O)cc(Nc2cccc(S(=O)(=O)CCOS(=O)(=O)O)c2)c2c1C(=O)c1ccccc1C2=O` [Remazol Brilliant blue R, 1-Amino-9,10-dihydro-9,10-dioxo-4-[[3[[2-(sulfoxy)-ethyl]sulfonyl]phenyl]amino]-2-anthracenesulfonic acid, disodium salt] is 12.4%; for `O=C1c2ccccc2C(=O)c2c1ccc(O[C@@H]1O[C@H](CO[C@@H]3OC[C@@H](O)[C@H](O)[C@H]3O)[C@@H](O)[C@H](O)[C@H]1O)c2O` [Ruberythric acid, 1-Hydroxy-2-[(6-O-β-D-xylopyranosyl-β-D-glucopyranosyl)oxy]-9,10-anthracenedione] it is 29.7%.
On to `Cc1ccc(Nc2ccc(Nc3ccc(C)cc3)c3c2C(=O)c2ccccc2C3=O)cc1` [Solvent green 3, 1,4-Bis[(4-methylphenyl)amino]9,10-anthracenedione], for which, under setting [1], the inhibition at 30 ppm was found to be 4.3%.
Still for that read-out and setting: the figure for `Cc1ccc(Nc2ccc(O)c3c2C(=O)c2ccccc2C3=O)c(S(=O)(=O)O)c1` [Solway purple R, 2-[(9,10-Dihydro-4-hydroxy-9,10-dioxo-1-anthracenyl)-amino]-5-methyl-benzenesulfonic acid, Na salt] is 9.1%.
On the same count and under the same terms, the figure for `CCNc1ccc(NCC)c2c1C(=O)c1ccccc1C2=O` [Sudan blue, 1,4-Bis(ethylamino)-9,10-anthracenedione] is 1.3%.
Still for that read-out and setting: the figure for `Cc1ccc(Nc2ccc(Nc3ccc(C)cc3)c3c2C(=O)c2cccc(O)c2C3=O)cc1` [Sudan green, 5-hydroxy-1,4-bis[(4-methylphenyl)amino]-9,10-anthracenedione] is 0%.
On to `CN(C)CCOc1ccc2c(c1)C(=O)c1ccc(OCCN(C)C)cc1C2=O` [Tilorone analog R11,043DA, 2,6-Bis[2-(dimethylamino)ethoxy]-9,10-anthracenedione], for which, under setting [1], the inhibition at 10 ppm was determined as 98.7%.
Turning to `Cc1ccc(Nc2ccc(Nc3ccc(C)cc3S(=O)(=O)O)c3c2C(=O)c2c(O)ccc(O)c2C3=O)c(S(=O)(=O)O)c1` [alizarine viridine, 2,2'-[(9,10-Dihydro-5,8-dihydroxy-9,10-dioxo-1,4-anthracenediyl)diimino]bis[5-methyl]benzenesulfonic acid], under setting [1], the inhibition at 30 ppm amounted to 2.6%.
Take `Nc1c(S(=O)(=O)O)cc(Nc2ccc(S(=O)(=O)O)c(Nc3nc(Cl)nc(Cl)n3)c2)c2c1C(=O)c1ccccc1C2=O` [reactive blue 4]: the inhibition at 10 ppm under setting [1] turned out to be 7.3%.
